pIC50: −log10 of the molar value.
Columns and labels:
Huh7 (liver) = test: Cytotoxicity on human cells, automated nuclei counting: Huh7; assay type: cell-based; conditions: Huh-7, exposed 24 h to 48 h, 0.1 to 25 μM
Protocol: (§1) Cytotoxicity: This method is based on an automated imaging analysis. 4.10^3 cells were cultivated on 96-well plates and left for 24 hours so as to bind, to spread and proliferate.
(§2) All the cell lines were cultivated in a DMEM or RPMI (Invitrogen) medium. All these media were completed with antibiotics (penicillin-streptomycin) (Lonza) and 10% by volume of fetal calf serum (Invitrogen). The cells were cultivated at 37° C. with 5% of CO2. The treatments with the molecules to be tested were carried out with increasing concentrations. The control experiments were also carried out by using suitable dilutions of DMSO (maximum 1% DMSO).

DYRK1A = DYRK1A (Homo sapiens, UniProt Q13627); test: DYRK1A kinase inhibition (Woodtide substrate)
HCT 116 (colon) = test: Cytotoxicity on human cells, automated nuclei counting: HCT 116; assay type: cell-based; conditions: HCT 116 cells, exposed 24 h to 48 h, 0.1 to 25 μM
Protocol: as §1, §2

GSK-3αβ = test: GSK-3 kinase inhibition (GS-1 substrate); conditions: read-out: IC50 μM Kinases GSK3, buffer A, 30° C., 15 μM ATP
PC3 (prostate) = test: Cytotoxicity on human cells, automated nuclei counting: PC3; assay type: cell-based; conditions: PC-3, exposed 24 h to 48 h, 0.1 to 25 μM
Protocol: as §1, §2

NCI (lung) = test: Cytotoxicity on human cells, automated nuclei counting: NCI; assay type: cell-based; conditions: exposed 24 h to 48 h, 0.1 to 25 μM
Protocol: as §1, §2

fibroblast = test: Cytotoxicity on human cells, automated nuclei counting: fibroblast; assay type: cell-based; conditions: exposed 24 h to 48 h, 0.1 to 25 μM
Protocol: as §1, §2

MDA-MB 231 (breast) = test: Cytotoxicity on human cells, automated nuclei counting: MDA-MB 231; assay type: cell-based; conditions: MDA-MB 231 cells, exposed 24 h to 48 h, 0.1 to 25 μM
Protocol: as §1, §2

Caco (colon) = test: Cytotoxicity on human cells, automated nuclei counting: Caco; assay type: cell-based; conditions: exposed 24 h to 48 h, 0.1 to 25 μM
Protocol: as §1, §2

CDK5/D25 = biological target: T1, CDK5/D25 (Homo sapiens, UniProt Q00535); test: CDK5 kinase inhibition (33P-ATP, histone H1); assay type: biochemical; conditions: buffer C, 30° C., 15 μM ATP, read-out: IC50 μM Kinases CDK5
T1 construct: made in house
Protocol: The protein kinase inhibition activities of the compounds of the invention are tested according to the following general procedure:
Buffer C: 60 mM β-glycerophosphate, 15 mM p-nitrophenyl-phosphate, 25 mM Mops (pH 7.2), 5 mM EGTA, 15 mM mgCl2, 1 mM DTT, 1 mM sodium vanadate and 1 mM phenylphosphate.
The controls were made with suitable dilutions of DMSO.
ATP (3.000 Ci/mmol.; 10 mCi/mL) in a final volume of 30 μL. After 30 mins of incubation at 30° C., 25 μL of supernatant aliquots were deposited on phosphocellulose Whatman P81 paper pieces of 2.5×3 cm, and after 20 seconds, the filters were washed five times (for at least 5 minutes each time) in a solution of 10 mL of phosphoric acid/1 litre of water. The wet filters were counted in the presence of 1 mL of scintillation fluid ACS (Amersham).

T1 sequence (Q00535 whole entry): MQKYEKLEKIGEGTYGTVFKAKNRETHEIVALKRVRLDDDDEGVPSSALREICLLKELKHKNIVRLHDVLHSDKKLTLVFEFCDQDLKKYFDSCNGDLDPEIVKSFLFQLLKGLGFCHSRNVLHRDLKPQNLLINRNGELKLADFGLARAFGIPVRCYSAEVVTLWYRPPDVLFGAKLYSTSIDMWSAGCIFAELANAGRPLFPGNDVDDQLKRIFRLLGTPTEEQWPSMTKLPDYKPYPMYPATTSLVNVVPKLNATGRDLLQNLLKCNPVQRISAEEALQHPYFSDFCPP
T1 sequence (Q15078 99-307 partner limits assumed): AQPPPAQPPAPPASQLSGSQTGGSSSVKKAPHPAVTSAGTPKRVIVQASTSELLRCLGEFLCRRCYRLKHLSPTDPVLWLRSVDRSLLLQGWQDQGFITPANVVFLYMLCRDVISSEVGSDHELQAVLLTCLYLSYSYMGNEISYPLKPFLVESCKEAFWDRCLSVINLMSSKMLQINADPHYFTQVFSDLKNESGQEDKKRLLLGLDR

Compound | IC50 (Huh7 (liver)) [µM] | pIC50 (DYRK1A) | melting point [°C] | IC50 (HCT 116 (colon)) [µM] | IC50 (GSK-3αβ) [µM] | IC50 (PC3 (prostate)) [µM] | IC50 (NCI (lung)) [µM] | IC50 (fibroblast) [µM] | IC50 (MDA-MB 231 (breast)) [µM] | IC50 (Caco (colon)) [µM] | IC50 (CDK5/D25) [µM]
O=C1c2cccc(NC(=S)Nc3ccccn3)c2C2CCCCN12 (stereo not drawn) [Compound 62, 1-(6-Oxo-1,2,3,4,6,10b-hexahydropyrido[2,1-a]isoindol-10-yl)-3-(pyridin-2-yl)thiourea] | > 25 | 4.33 | 195 | 8 | 2.3 | 20 | > 25 | > 25 | 25 | 20 | –
CC(C)(C)OC(=O)n1ccc(NC(=O)Nc2cccc3c2C2CCCCN2C3=O)n1 (stereo not drawn) [Compound 118] | – | < 5.00 | 136 | – | 0.4 | – | – | – | – | – | –
Cc1cc(NC(=O)Nc2cccc3c2C2CCCCN2C3=O)no1 (stereo not drawn) [Compound 24, 1-(5-Méthylisoxazol-3-yl)-3-(6-oxo-1,2,3,4,6,10b-hexahydropyrido[2,1-a]isoindol-10-yl)urea] | 3 | < 5.00 | 156 | 2 | 0.033 | 6 | 10 | 12 | 3 | 3 | 2.7
COc1cc(NC(=O)Nc2cccc3c2C2CC(O)CCN2C3=O)nc2ccccc12 (stereo not drawn) [Compound 109, 1-(2-Hydroxy-6-oxo-1,2,3,4,6,10b-hexahydropyrido[2,1-a]isoindol-10-yl)-3-(4-methoxyquinolin-2-yl)urea] | 1 | < 5.00 | > 260 | 1 | 0.035 | 5 | 1 | 5 | 6 | 15 | 4.9
COC1CCN2C(=O)c3cccc(NC(=O)Nc4ccn(C)n4)c3C2C1 (stereo not drawn) [Compound 60, 1-(2-methoxy-6-oxo-1,2,3,4,6,10b-hexahydropyrido[2,1-a]isoindol-10-yl)-3-(1-methyl-1H-pyrazol-3-yl)urea] | 2 | < 5.00 | – | 4 | – | 7 | 2 | 15 | 10 | 15 | 2.3
Cc1cccnc1NC(=O)Nc1cccc2c1C1CC3(CCN1C2=O)OCCO3 (stereo not drawn) [Compound 45] | > 25 | < 5.00 | > 260 | 25 | 0.61 | > 25 | > 25 | > 25 | > 25 | > 25 | 3.1
COC1CCN2C(=O)c3cccc(NC(=O)Nc4cccc(C)n4)c3C2C1 (stereo not drawn) [Compound 56, 1-(2-Methoxy-6-oxo-1,2,3,4,6,10b-hexahydropyrido[2,1-a]isoindol-10-yl)-3-(6-methylpyri-din-2-yl)urea] | 3 | < 5.00 | – | 3 | 0.32 | 6 | 10 | 7 | 7 | 6 | 4.3
O=C1CCN2C(=O)c3cccc(NC(=O)Nc4cc(O)c5ccccc5n4)c3C2C1 (stereo not drawn) [Compound 103, 1-(2,6-Dioxo-1,2,3,4,6,10b-hexahydropyrido[2,1-a]isoindol-10-yl)-3-(4-hydroxyquinolin-2-yl)urea] | – | ≤ 5.00 | > 260 | – | 1.3 | – | – | – | – | – | > 10
O=C1c2cccc(NC(=S)Nc3ccc(Br)cn3)c2C2CCCCN12 (stereo not drawn) [Compound 66, 1-(5-Bromopyridin-2-yl)-3-(6-oxo-1,2,3,4,6,10b-hexahydropyrido[2,1-a]isoindol-10-yl)thiourea] | > 25 | < 4.00 | – | 3 | 2.1 | > 25 | 25 | 4 | 2 | 2 | 8.7
O=C(Nc1cccc2c1C1CCCCN1C2=O)Nc1nc(Cl)c(Cl)c(Cl)c1Cl (stereo not drawn) [Compound 33, 1-(6-oxo-1,2,3,4,6,10b-hexahydropyrido[2,1-a]isoindol-10-yl)-3-(perchloro-pyridin-2-yl)urea] | 0.25 | < 4.00 | 246 | 0.5 | 4.3 | 1 | 0.8 | 0.5 | 0.5 | 1.5 | –
COC1CCN2C(=O)c3cccc(NC(=O)Nc4ccccn4)c3C2C1 (stereo not drawn) [Compound 53, 1-(2-Methoxy-6-oxo-1,2,3,4,6,10b-hexahydropyrido[2,1-a]isoindol-10-yl)-3-(pyridin-2-yl)urea] | 0.7 | < 5.00 | – | 1 | 0.081 | 2 | 4 | 3 | 2 | 2.5 | 0.55
Cn1ccc(NC(=O)Nc2cccc3c2C2CC4(CCN2C3=O)SCCS4)n1 (stereo not drawn) [Compound 40, 1-(6′-Oxo-3′,4′,6′,10b′-tetrahydro-1′H-spiro[[1,3]dithiolane-2,2′-pyrido[2,1-a]isoindole]-10′-yl)-3-(1-Methyl-1H-pyrazol-3-yl)urea] | – | < 5.00 | 135 | – | 1.9 | – | – | – | – | – | ≥ 10
COC1CCN2C(=O)c3cccc(NC(=O)Nc4cc(C)ccn4)c3C2C1 (stereo not drawn) [Compound 58, 1-(2-methoxy-6-oxo-1,2,3,4,6,10b-hexahydropyrido[2,1-a]isoindol-10-yl)-3-(4-methylpyridin-2-yl)urea] | 0.1 | < 5.00 | – | 0.03 | 0.032 | 0.4 | 0.4 | 0.5 | 0.3 | 0.5 | 0.32
O=C(Nc1ccncn1)Nc1cccc2c1C1CCCCN1C2=O (stereo not drawn) [Compound 32, 1-(6-Oxo-1,2,3,4,6,10b-hexahydropyrido[2,1-a]isoindol-10-yl)-3-(pyrimidin-4-yl)urea] | – | 4.15 | 218 | – | 0.36 | – | – | – | – | – | 1.5
O=C(Nc1cc[nH]n1)Nc1cccc2c1C1CCCCN1C2=O (stereo not drawn) [Compound 119, 1-(6-Oxo-1,2,3,4,6,10b-hexahydro-pyrido[2,1-a]isoindol-10-yl)-3-(1H-pyrazol-3-yl)-urea] | – | < 5.00 | 185 | – | 0.47 | – | – | – | – | – | –
Cn1ccc(NC(=O)Nc2cccc3c2C2CCCCN2C3=O)n1 (stereo not drawn) [Compound 41, 1-(1-Methyl-1H-pyrazol-3-yl)-3-(6-oxo-1,2,3,4,6,10b-hexahydro-pyrido[2,1-a]isoindol-10-yl)-urea] | – | < 5.00 | 233 | – | 0.31 | – | – | – | – | – | 0.51
O=C(Nc1cc(O)c2ccccc2n1)Nc1cccc2c1C1CC(O)CCN1C2=O (stereo not drawn) [Compound 110, 1-(2-Hydroxy-6-oxo-1,2,3,4,6,10b-hexahydropyrido[2,1-a]isoindol-10-yl)-3-(4-hydroxyquinolin-2-yl)urea] | – | ≤ 5.00 | > 260 | – | 2.5 | – | – | – | – | – | > 10
COC1CCN2C(=O)c3cccc(NC(=O)Nc4ncccc4C)c3C2C1 (stereo not drawn) [Compound 57, 1-(2-Methoxy-6-oxo-1,2,3,4,6,10b-hexahydropyrido[2,1-a]isoindol-10-yl)-3-(3-methylpyridin-2-yl)urea] | 1.2 | < 5.00 | – | 1 | – | 1.2 | 4 | 3 | 2.2 | 2 | 1.1
COc1cc(NC(=O)Nc2cccc3c2C2CC4(CCN2C3=O)SCCS4)nc2ccccc12 (stereo not drawn) [Compound 49] | 5 | < 5.00 | – | 10 | 4 | 15 | 10 | 25 | 20 | 15 | > 10
